# Reference: US11376242B2, “Methods and compositions for treating obesity and/or diabetes and for identifying candidate treatment agents” (The J. David Gladstone Institutes, a testamentary trust …, priority 2016, dated 2022)
# Key:
# [1] = test system: tentative ClpP effectors (Trap1, ClpX, LRPPRC, LonP, and OAT); assay: Western blot of tentative ClpP effectors in liver mitochondrion lysates from treated HFD-fed mice; assay type: in vivo, mouse; settings: HFD-fed WT mice, vs vehicle-treated (FIG. 32 right panel)
# Method: (§1) Western blot. Tissues or cells were lysated in low-detergent buffer (50 mM Tris/HCl, pH 8.0, 150 mM NaCl, 0.1% SDS, 0.5% Nonidet P-40, 0.5% sodium deoxycholate) with a mixture of protease inhibitors. Phosphatase inhibitors were also included in the lysate buffer. The lysates were centrifuged at 13,000 rpm for 10 min to remove the pellets. SDS-PAGE was performed with a NuPAGE bis-tris system from Invitrogen, following the vendor's protocol. A standard western blot protocol was used with IRDye-labeled secondary antibodies (Li-cor). A Li-cor image system was used to scan the western blot images.
# (§2) The in-vivo analysis of Example 9 is continued, with collection of the blood and multiple organs (liver/muscle/brain) at day 9 of A2-32-01 injection. Mitochondria are isolated from mouse liver and ClpP activity is tested using peptide substrates, e.g., as described herein. Western blot analysis is performed to detect ClpP substrate levels.
# (§3) The in-vivo analysis described in Examples 9 and 10 was continued in accordance with the experimental protocol shown in FIG. 30.
# [2] = test system: db/db mice (a model of obesity, diabetes, and dyslipidemia); assay: In vivo treatment of db/db mice; set-up: species or system mouse
# Method: (§4) Measurement of blood glucose and plasma insulin. Blood glucose was measured with a glucometer and glucose test strips (Free Style Lite). Plasma insulin was quantified with an insulin Elisa kit (Crystal Chem).
# (§5) Glucose, insulin, and pyruvate tolerance tests. Glucose, insulin, and pyruvate tolerance tests were performed by intraperitoneal injection of glucose (2 g/kg), insulin (0.5 units/kg) or pyruvate (2 g/kg) after an overnight fast for glucose and pyruvate or a 4-h fast for insulin. Blood glucose levels were measured before injection and at different time points after injection. To assess glucose-stimulated insulin release, mice fasted overnight (for 16 h) and were then injected intraperitoneally with glucose (2 g/kg). Blood samples were collected from tail veins before injection and at different time points after injection.
# (§6) Histological analysis. Tissues (liver, visceral adipose, gastrocnemius muscle, interscapular brown adipose, and pancreas) were fixed in 4% paraformaldehyde (pH 7.4) overnight, embedded in paraffin, and serially sectioned at 7-8 μm. Standard haematoxylin and eosin staining was performed.
# [3] = test system: high fat diet (HFD)-induced obesity and diabetes mouse models; assay: In vivo treatment in high fat diet (HFD)-induced obesity and diabetes mouse model
# Text: Animals. All mice were maintained on a 12-h light/dark cycle in a pathogen-free animal facility. Mice were separately housed by their genotypes for all metabolic studies. For high-fat diet (HFD)-induced obesity studies, animals were fed a HFD (21% by weight, 42% kcal from fat, 0.2% total cholesterol; TD.01064, Harlan-Teklad) for specified periods. Anesthesia was induced with isoflurane (survival procedures) or with avertin (terminal procedures). All procedures were approved by the UCSF Animal Research Committee and followed NIH guidelines. Animal sample sizes for different assays were chosen based on previous literature. Animals were grouped according to genotype; no randomization was used. For all behavior tests, all animal IDs were blinded to tester. Testers were not blinded for other assays.
# as §4, §5, §6
# 7-9 month old WT female (20 mice), were fed with high fat diet for 3 weeks. Body weight change and blood glucose/plasma insulin levels in response to HFD were measured. At the beginning of the 4th week, for treatment group, A2-32-01 was injected peritoneally twice daily at 300 mg/kg for 8 days. For the control group, corn oil (vehicle) was injected. The mice were maintained on HFD. The body weight change was followed every day. At the 8th day of A2-32-01 injection, blood glucose levels were measured, and a glucose tolerance test was applied to measure insulin sensitivity.
# as §3
# [4] = test system: mRNA level of these genes in mouse MEF cells; assay: qPCR assay of ClpP substrates in MEF cells treated with ClpP inhibitor; assay type: cell-based; settings: 10 μM twice a day for 2 days (48 hr), qPCR (FIG. 26)
# Method: (§7) Wild type mouse MEF cells were seeded at 200,000 cells per well at 6 well plates the day before treatment. Cells were treated with the small molecule ClpP inhibitors A2-32-01, AV167, and AV179 (described previously herein) at 10 μM in OPTI-MEM twice a day for 2 days (48 hr). For each treatment, the old medium will be removed and fresh medium added to the wells. After 48 hr treatment, the cells were harvested for western blot analysis or qPCR assay of ClpP substrates.
# ClpP [5] = target: T1, ClpP (Mus musculus, UniProt O88696); assay: ClpP activity in liver mitochondrion lysates from treated HFD-fed mice; assay type: in vivo; settings: HFD-fed WT mice; vs vehicle-treated (FIG. 32 left panel)
# T1 construct: ClpP activity was lower in liver mitochondrion lysates from A2-32-01-treated mice compared to those from vehicle-treated mice; from tissue; host or cells: liver mitochondria of HFD-fed wild-type mice dosed in vivo with A2-32-01
# T1 sequence (O88696 53-272): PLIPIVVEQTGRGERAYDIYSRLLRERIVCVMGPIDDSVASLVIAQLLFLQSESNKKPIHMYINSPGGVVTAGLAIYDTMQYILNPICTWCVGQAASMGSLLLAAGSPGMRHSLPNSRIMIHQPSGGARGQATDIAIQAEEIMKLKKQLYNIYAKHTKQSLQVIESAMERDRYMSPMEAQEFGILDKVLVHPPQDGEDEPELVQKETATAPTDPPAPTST
# Method: as §2, §3
# [6] = test system: ClpP substrate protein levels in mouse MEF cells; assay: Western blot analysis of ClpP substrates in MEF cells treated with ClpP inhibitors; assay type: cell-based; settings: 10 μM in OPTI-MEM twice a day for 2 days (48 hr); wild type mouse MEF cells; western blot (FIGS. 24 and 25)
# Method: as §1, §7
# ClpP [7] = target: T1, ClpP; assay: ClpP activity in liver mitochondria lysates from treated db/db mice; assay type: in vivo; settings: vs vehicle (FIG. 35 panel E)
# [8] = H&E and oil red staining, vs vehicle (FIG. 36)
# [9] = WT mice on HFD, H&E and oil red staining, vs vehicle (FIG. 33)
smiles,measurement,setting,value
"C=CCCCCCCC[C@H]1C(=O)O[C@@H]1CCc1cccnc1 (racemic) [A2-32-01, (3RS,4RS)-3-(non-8-en-1-yl)-4-(2-(pyridin-3-yl)ethyl)oxetan-2-one]","levels of tentative ClpP effectors (Trap1, ClpX, LRPPRC, LonP, and OAT) in liver mitochondrion lysates",[1],higher
same,lipid accumulation in liver cells,[2]; [8],lowered
same,morphology of liver cells,[2]; [8],restored normal morphology
same,body weight,"[2]; at the end of the treatment, vs vehicle (FIG. 34 panel B)",significantly decreased
same,insulin sensitivity (glucose tolerance tests),[2]; vs vehicle (FIG. 35 panel C),increased
same,fasting blood glucose levels,[2]; vs vehicle (FIG. 35 panel D),significantly lower
same,body weight,"[3]; 300 mg/kg peritoneally twice daily, day 2 through day 7, HFD-fed WT female mice, vs vehicle control (FIG. 28)",significant decrease
same,insulin sensitivity (glucose tolerance test),"[3]; 300 mg/kg peritoneally twice daily, day 8, HFD-fed WT mice, vs vehicle control (FIG. 29)",significant improvement
same,insulin sensitivity (glucose tolerance tests),"[3]; Example 11, HFD-fed WT mice, vs vehicle (FIG. 31 right panel)",increased
same,body weight,"[3]; Example 11, mice on HFD, vs vehicle-treated (FIG. 31 left panel)",significantly decreased
same,lipid accumulation in liver cells,[3]; [9],lowered
same,morphology of liver cells,[3]; [9],restored normal morphology
same,mRNA level of ClpP substrate genes,[4],remained unchanged
same,ClpP activity in liver mitochondrion lysates,ClpP [5],lower
same,ClpP substrate protein levels,[6],increased
same,ClpP activity in liver mitochondria lysates,ClpP [7],lower
